In patent US9615577B2, “Herbicidally active cyclic dione compounds, or derivatives therefor, substituted by a phenyl which has an alkynyl-containing substituent” (Syngenta Limited, priority 2012, dated 2017):

Key:
Assay type in all cases: in vivo
Avena fatua (AVEFA) [1] = experiment: Test 1B glasshouse assay for herbicidal activity, post-emergence; conditions: 360 h; for pest or weed control at 30 g/ha: 30 g/ha application rate; for pest or weed control at 125 g/ha: 125 g/ha application rate
Method in brief: (§1)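 Potted plants sprayed with active ingredient in an emulsifiable formulation diluted in 0.2% v/v X-77, 1 day after sowing (pre-emergence) or about 12 days after (post-emergence). Glasshouse at 20/16° C day/night, 16 h light, 65% humidity. Visual percent phytotoxicity scored at 20 DAA (pre) or 15 DAA (post).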

Lolium perenne (LOLPE) [2] = experiment: as above; conditions: 360 h; for pest or weed control at 30 g/ha: 30 g/ha application rate; for pest or weed control at 125 g/ha: 125 g/ha application rate
Method in brief: as §1

[3] = test system: Alopecurus myosuroides (ALOMY); experiment: as above; conditions: 360 h; for pest or weed control at 30 g/ha: 30 g/ha application rate; for pest or weed control at 125 g/ha: 125 g/ha application rate
Method in brief: as §1

[4] = test system: Glycine max (GLXMA, soybean); experiment: as above; conditions: 360 h; for plant injury at 30 g/ha: 30 g/ha application rate; for plant injury at 125 g/ha: 125 g/ha application rate
Method in brief: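 Soybean sprayed 1 day after sowing (pre-emergence) or at about 12 days (post-emergence) with aqueous active ingredient plus 0.2% v/v X-77 adjuvant. Plants grown at 24/18 °C day/night, 16 h light, 65% humidity. Visual % phytotoxicity (100% = total damage) scored at 20 DAA pre-emergence, 15 DAA post-emergence.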

[5] = test system: Digitaria sanguinalis (DIGSA); experiment: as above; conditions: 360 h; for pest or weed control at 30 g/ha: 30 g/ha application rate; for pest or weed control at 125 g/ha: 125 g/ha application rate
Method in brief: (§2)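 Warm-climate glasshouse, 24/18° C., 16 h light, 65% humidity. Spray: IF50 (50 g/liter stock) in 0.2% v/v X-77; pre-emergence 1 day post-sowing, post-emergence ~12 days (10-13). Visual phytotoxicity 0-100%, at 15 DAA post, 20 DAA pre.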

Setaria faberi (SETFA) [6] = experiment: as above; conditions: 360 h; for pest or weed control at 30 g/ha: 30 g/ha application rate; for pest or weed control at 125 g/ha: 125 g/ha application rate
Method in brief: as §2

[7] = test system: SORVU (Sorghum bicolor (L.) Moench ssp. Bicolor, or Sorghum vulgare Pers.); experiment: as above; conditions: 360 h; for pest or weed control at 30 g/ha: 30 g/ha application rate; for pest or weed control at 125 g/ha: 125 g/ha application rate
Method in brief: as §2

Avena fatua (AVEFA) [8] = experiment: Test 1B glasshouse assay for herbicidal activity, pre-emergence; conditions: 480 h, 20 DAA, read-out: percentage phytotoxicity AVEFA
Description: (§3) Seeds of a variety of monocotyledonous and dicotyledonous test plants are sown in standard soil in pots. The plants are cultivated for one day (for pre-emergence) or for about 12 days (range=10-13 days) (for post-emergence) under controlled conditions in a glasshouse (warm climate species at 24/18° C., cool climate species at 20/16° C., both at day/night; 16 hours light; 65% humidity).
(§4) An “instant formulation”, known as the “IF50”, containing 50 g/liter (i.e. 5% w/v) of the “technical” (i.e. unformulated) active ingredient is prepared by dissolving the active ingredient in a mixture of organic solvents and emulsifier, details of which are provided in the Table below. This IF50 is then mixed with a small, variable amount of acetone to aid dissolution, before addition of a 0.2% v/v aqueous solution of the adjuvant X-77 (which is a mixture of alkyl aryl polyoxyethylene glycols and free fatty acids in isopropanol, CAS Registry number 11097-66-8), as the aqueous diluent, to form an aqueous spray solution which contains a predetermined concentration of the active ingredient (which varies depending on the application rate of the active ingredient to the plants) and 0.2% v/v of the adjuvant X-77. This aqueous spray solution is then sprayed onto the plants, after one day's cultivation (for pre-emergence) or after about 12 days' cultivation (for post-emergence).
(§5) The test plants are then grown on, in a glasshouse (greenhouse) under controlled conditions (at either 24/18° C. or 20/16° C. (day/night) as mentioned above; 16 hours light; 65% humidity) and are watered twice daily. Either 15 days after application of the herbicide (15 DAA) (for post-emergence), or 20 days after application of the herbicide (20 DAA) (for pre-emergence), the test plants are evaluated visually, and an assessed percentage phytotoxicity score is given for each herbicidal application on each plant species (where 100%=total damage to plant; 0%=no damage to plant).
(§6) Cool climate (“cool season”) grassy monocotyledonous weeds: Alopecurus myosuroides (ALOMY), Avena fatua (AVEFA), Lolium perenne (LOLPE).

Lolium perenne (LOLPE) [9] = experiment: as above; conditions: 480 h, 20 DAA, read-out: percentage phytotoxicity LOLPE
Description: as §3, §4, §5, §6

[10] = test system: Alopecurus myosuroides (ALOMY); experiment: as above; conditions: 480 h, 20 DAA, read-out: percentage phytotoxicity ALOMY
Description: as §3, §4, §5, §6

[11] = test system: Echinochloa crus-galli (ECHCG); experiment: Test 1B glasshouse assay for herbicidal activity, post-emergence; conditions: Echinochloa crus-galli; for pest or weed control at 30 g/ha: 30 g/ha application rate; for pest or weed control at 125 g/ha: 125 g/ha application rate
Method in brief: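 Plants grown about 12 days (10–13) in glasshouse (24/18 °C day/night, 16 h light, 65% humidity) then sprayed with IF50 formulation diluted in 0.2% v/v X-77 adjuvant at set application rates. Percent phytotoxicity scored visually 15 days after application (0 = no damage, 100 = total damage).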

Setaria faberi (SETFA) [12] = experiment: Test 1A glasshouse assay for herbicidal activity, post-emergence; conditions: 312 h, evaluated after 13 days, read-out: percentage phytotoxicity SETFA
Method in brief: (§7)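 Phytotoxicity was rated visually 13 days post-spray, 0 meaning no damage and 100 total damage. Spray solution: acetone/water 50:50 with 0.5% Tween 20, applied one day post-sowing for pre-emergence or after 8 days for post-emergence; plants kept at 24/16 °C, 14 h light, 65% humidity.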

[13] = test system: Glycine max (GLXMA, soybean); experiment: Test 1B glasshouse assay for herbicidal activity, pre-emergence; conditions: 480 h, 20 DAA, read-out: percentage phytotoxicity GLXMA
Description: as §3, §4, §5
Warm climate crop plants: Glycine max (GLXMA, soybean).

[14] = test system: Amaranthus retroflexus (AMARE); experiment: Test 1A glasshouse assay for herbicidal activity, pre-emergence; conditions: 312 h, evaluated after 13 days, read-out: percentage phytotoxicity AMARE
Method in brief: as §7

[15] = test system: Alopecurus myosuroides (ALOMY); experiment: as above; conditions: 312 h, evaluated after 13 days, read-out: percentage phytotoxicity ALOMY
Method in brief: as §7

Setaria faberi (SETFA) [16] = experiment: as above; conditions: 312 h, evaluated after 13 days, read-out: percentage phytotoxicity SETFA
Method in brief: as §7

[17] = test system: Echinochloa crus-galli (ECHCG); experiment: as above; conditions: 312 h, evaluated after 13 days, read-out: percentage phytotoxicity ECHCG
Method in brief: as §7

| SMILES | pest or weed control at 30 g/ha (Avena fatua (AVEFA) [1]) | pest or weed control at 125 g/ha (Avena fatua (AVEFA) [1]) | pest or weed control at 30 g/ha (Lolium perenne (LOLPE) [2]) | pest or weed control at 125 g/ha (Lolium perenne (LOLPE) [2]) | pest or weed control at 30 g/ha [3] | pest or weed control at 125 g/ha [3] | plant injury at 30 g/ha [4] | plant injury at 125 g/ha [4] | pest or weed control at 30 g/ha [5] | pest or weed control at 125 g/ha [5] | pest or weed control at 30 g/ha (Setaria faberi (SETFA) [6]) | pest or weed control at 125 g/ha (Setaria faberi (SETFA) [6]) | pest or weed control at 30 g/ha [7] | pest or weed control at 125 g/ha [7] | pest or weed control at 30 g/ha [11] | pest or weed control at 250 g/ha (Setaria faberi (SETFA) [12]) | pest or weed control at 250 g/ha [14] | pest or weed control at 250 g/ha [15] | pest or weed control at 250 g/ha (Setaria faberi (SETFA) [16]) | pest or weed control at 250 g/ha [17] | further results |
| --- | --- | --- | --- | --- | --- | --- | --- | --- | --- | --- | --- | --- | --- | --- | --- | --- | --- | --- | --- | --- | --- |
| CC#Cc1cc(Cl)c(C2C(=O)C3CCC(C3)C2=O)c(OC)c1 (stereo not drawn) [Compound A-12] | 0% | 30% | 0% | 70% | 10% | 70% | 0% | 10% | 100% | 100% | 70% | 80% | 80% | 100% | 90% | 100% | 0% | 100% | 100% | 100% | pest or weed control at 250 g/ha (Avena fatua (AVEFA) [8]; 250 g/ha): 50%; pest or weed control at 250 g/ha (Lolium perenne (LOLPE) [9]; 250 g/ha): 100%; pest or weed control at 250 g/ha ([10]; 250 g/ha): 60%; pest or weed control at 125 g/ha [11]: 100%; pest or weed control at 62.5 g/ha (Setaria faberi (SETFA) [12]; 62.5 g/ha): 100%; plant injury at 250 g/ha ([13]; 250 g/ha): 40%; pest or weed control at 62.5 g/ha ([14]; 62.5 g/ha): 0%; pest or weed control at 62.5 g/ha ([15]; 62.5 g/ha): 90%; pest or weed control at 62.5 g/ha (Setaria faberi (SETFA) [16]; 62.5 g/ha): 100%; pest or weed control at 62.5 g/ha ([17]; 62.5 g/ha): 90% |
| CC#Cc1cc(C)c(C2C(=O)C3CCC(C3)C2=O)c(OC)c1 (stereo not drawn) [Compound A-10] | 20% | 40% | 30% | 80% | 60% | 100% | 10% | 20% | 90% | 100% | 80% | 100% | 100% | 100% | 90% | 100% | 0% | 100% | 100% | 100% | pest or weed control at 125 g/ha (Avena fatua (AVEFA) [8]): 60%; pest or weed control at 125 g/ha (Lolium perenne (LOLPE) [9]): 100%; pest or weed control at 125 g/ha [10]: 80%; pest or weed control at 125 g/ha [11]: 100%; plant injury at 125 g/ha [13]: 0% |
| CC#Cc1cc(C)c(C2C(=O)CC(CC3CCOCC3)CC2=O)c(C)c1 (stereo not drawn) [Compound A-9] | 70% | – | 60% | – | 80% | – | 60% | – | 100% | – | 90% | – | 80% | – | 100% | 90% | 100% | 100% | 100% | 100% | pest or weed control at 125 g/ha (Avena fatua (AVEFA) [8]): 80%; pest or weed control at 125 g/ha (Lolium perenne (LOLPE) [9]): 100%; pest or weed control at 125 g/ha [10]: 80%; plant injury at 125 g/ha [13]: 10% |
